Measurements published in patent US20250186403A1 (ARIZONA BOARD OF REGENTS ON BEHALF OF THE UNIVERSITY OF …, priority 2022, published 2025).

Experiments:
[1] = test system: Cne-H99; assay: Efficacy in cryptococcal pulmonary infection mouse model; format: in vivo, Cryptococcus neoformans; BALB/c mice
Method: Blood samples were collected at 0, 0.5, 1, 2, 4, 8, 12, 16, 24, and 36 h after oral gavage. […] Other PK parameters are in Table 4. The values represent means±SD. […] On day 0, mice were infected with H99 (10^7 cells/mice) intranasally or mock-infected with PBS. Mice were euthanized on day 5, and lungs were dissected out, homogenized in RPMI-1640-MOPS media, and plated onto Sabouraud dextrose agar plates containing antibiotics. Plates were incubated at 30° C. for 72 h, and colonies were counted. […] VC: Vehicle control, (90% corn oil, 10% DMSO). Dpi: Days post-infection. CFU: Colony-forming units.
Efficacy studies in the mouse: The in vivo studies were done in a mouse model with the approval of IACUC, Wadsworth Center, Albany, NY. Male and female BALB/c mice 4-5-week-old were purchased from Jackson laboratory and quarantined for a week before shifting to the experimental room. The mice were grouped randomly with a male: female ratio 1:1, ears were punched as identification code. The formulation of the compound was done by dissolving the CMN in absolute DMSO and diluted in corn oil. The formulations were done daily, just before the dosing. […] Following this, the mice were anesthetized and infected with Cne-H99 cells ([…] in 30 μl PBS/mouse) intranasally. […] Mice were weighed every day, and visual observations were made for activity, movement, coat condition, etc. Food and water were ad libitum. On day 5, the mice were anesthetized and euthanized. Lung tissues were dissected out, weighed, and homogenized in 1 ml RPMI-MOPS media using a glass homogenizer. After log dilution of the tissue suspension in RPMI-MOPS, 100 μl from each dilution was plated onto SD agar plates with antibiotics (20 μg/ml penicillin, 40 μg/ml streptomycin, […], 25 μg/ml chloramphenicol). The plates were incubated at 30° C. for 3 days before counting the colonies. The counts were normalized with the weight of the lung tissue taken during the necropsy. The fungal load in the groups was compared with Student's t-test, and p<0.05 was considered as significant.

[2] = 7-day toxicity study in mice; format: in vivo, BALB/c mice; design: key to Movement score (first line, r17) / Movement score (second line, r19): 0 = Normal; 1 = slight incoordination/decreased righting response; 2 = tiptoe walking or altered gait involving 1 limb; 3 = staggering or paralysis or tremors of 2 or more limbs; key to Coat condition score: 0 = normal/groomed; 1 = rough; 2 = ruffled/unkempt; key to Posture score: 0 = normal; 1 = slightly hunched; 2 = moderately hunched; 3 = severally hunched; conditions: for Coat condition score / Death / Movement score (first line, r17) / Movement score (second line, r19) / Posture score / Seizure: individual mice
Method: FIGS. 4A, 4B, and 4C show in vitro and in vivo toxicity. […] A549 and RAW 264.7 cells were grown in 96 well plates till 70% confluent. RAW 264.7 cells were differentiated into macrophages using PMA. […] The cell viability was estimated by Cell Counting Kit-8 (GlpBio, CA, USA), and absorbance was read at 450 nm using microplate reader Synergy H1 (BioTek). CC50 was calculated by GraphPad prism. […] Abs: absorbance. […] Bodyweight and other parameters were monitored daily (Table 3).
The mice were observed twice daily for general health, movement, activity, and coat condition and scored. Food and water were ad libitum. On day 7, the mice were euthanized, and necropsy was done to see any changes in the organs as compared to the normal mice by visual observation.

[3] = test system: Cne cells; assay: Checkerboard assay with known antifungals; format: cell-based, Cryptococcus neoformans
Method: After adding Cne cells, the plates were incubated for 48 h. Well contents were mixed by pipette, and absorbance was read at 630 nm. […] Based on the FIC, the combinatorial effects are decided as in Table 2.

[4] = CMN 5 mg/kg BW oral daily 7 days
[5] = CMN 10 mg/kg BW oral daily 7 days
[6] = CMN 20 mg/kg BW oral daily 7 days
[7] = CMN 40 mg/kg BW oral daily 7 days

With `CNc1ccc2oc(C[C@H]3O[C@@]4(CC[C@H]3C)O[C@H]([C@H](C)C(=O)c3ccc[nH]3)[C@H](C)C[C@H]4C)nc2c1C(=O)O` [CMN, calcimycin] the “reduction in fungal burden vs vehicle control” value ([1]; CMN 20 mg/Kg BW orally once daily for 5 days, day 5) was 3 fold, the “fungal burden in the lungs” value ([1]; CMN 20 mg/Kg BW orally once daily for 5 days, day 5, vehicle 1.8×10^8) was 6.3×10^7 CFU/g lung tissue and the “reduction in lung-fungal load” value ([1]; CMN 20 mg/kg body weight) was 60%. For the same molecule, the other morbidity ([2]; 40 mg/ml daily oral gavage, 7 days) was “no other morbidity was observed”, the “loss of body weight” value ([2]; 40 mg/ml daily oral gavage, by day 7) was 8% and the activity of mice ([2]; 40 mg/ml, for 1-2 h post-dosing) was “slower”. For the same molecule, the Coat condition score [2, 4] was 0, the Death [2, 4] was 0 and the “Movement score (first line, r17)” value [2, 4] was 0. For the same molecule, the “Movement score (second line, r19)” value [2, 4] was 0, the Posture score [2, 4] was 0 and the Seizure [2, 4] was 0. The Coat condition score [2, 5] was 0, the Death [2, 5] was 0 and the “Movement score (first line, r17)” value [2, 5] was 0. The “Movement score (second line, r19)” value [2, 5] was 0, the Posture score [2, 5] was 0 and the Seizure [2, 5] was 0. For the same molecule, the Coat condition score [2, 6] was 0, the Death [2, 6] was 0 and the “Movement score (first line, r17)” value [2, 6] was 0. For the same molecule, the “Movement score (second line, r19)” value [2, 6] was 0, the Posture score [2, 6] was 0 and the Seizure [2, 6] was 0. The Coat condition score [2, 7] was 0, the Death [2, 7] was 0 and the “Movement score (first line, r17)” value [2, 7] was 1. The “Movement score (second line, r19)” value [2, 7] was 0, the Posture score [2, 7] was 0 and the Seizure [2, 7] was 0. For the same molecule, the “change in activity, appearance of fur, weight loss” value ([2]; daily oral gavage at 5, 10, 20 mg/ml, 7 days) was “no significant change”, the MIC ([3]; Cryptococcus neoformans, 48 h, read-out: MIC Alone) was 1.31 µg/mL and the “MIC Comb” value ([3]; combination CMN + 5-Fluorocytosine, well D2) was 0.65 µg/mL. The “MIC Comb” value ([3]; combination CMN + Amphotericin B, well E6) was 0.33 µg/mL, the “MIC Comb” value ([3]; combination CMN + Itraconazole, well E4) was 0.33 µg/mL and the “MIC Comb” value ([3]; combination CMN + Voriconazole, well D4) was 0.65 µg/mL.
